Data reported in patent publication US9295732B2, “Conjugated TLR7 and/or TLR8 and TLR2 polycationic agonists” (CAYLA, priority 2013, dated 2016).
Values joined by “and” are separate entries in the source; they are usually repeats but may differ in a detail not shown here. Identical values can stand only once.

Legend:
[1] = system: ISG54 promoter activity in B16-ISG54 reporter cells; assay: IFN response assay, B16-ISG54 luciferase reporter cells; format: cell-based, mouse; conditions: in complexes with pDNA 3:24 (w:w), overnight, FIG. 6B
Procedure: (§1) The effect of the pDNA:TLR7-TLR2 polyamine molecules complexes on inducing an interferon response was examined. pDNA:TLR7-TLR2 polyamine molecules mixtures (pDNA:TLR7-TLR2 polyamine molecules ratio 3:24, w:w) in serum-free medium or 5% glucose were prepared as described above and added to IFN reporter cells. Luciferase reporter cell lines were used to assay interferon response. A plasmid containing an interferon-inducible luciferase reporter gene was introduced into mouse RAW 264.7 macrophages and mouse B16 melanoma cells, giving rise to the RAW-ISG54 and B16-ISG54 reporter cell lines respectively. Expression of the luciferase reporter gene by the plasmid is under the control of an interferon-inducible promoter (I-ISG54) comprising five interferon-stimulated response elements (ISRE) and the minimal promoter of the human ISG-54K (Interferon Stimulation of a Gene encoding a 54 kDa protein) gene. The ISG-54K gene is induced by interferon regulatory factor 3 (IRF3), which has a key involvement in […] responses (Grandvaux et al. 2002) and the minimal promoter of the human ISG-54K gene contains two ISRE sites and fully inducible by type I interferons (IFN-α and IFN-β) and interferon regulatory factors (IRFs) (Wathelet et al. 1988; Grandvaux et al. 2002).
(§2) The RAW-ISG54 and B16-ISG54 reporter cell lines were seeded onto 96 well microtiter plates at 100,000 cells per well and 75,000 cells per well respectively. Cells were cultured in DMEM supplemented with 10% (v/v) heat inactivated fetal bovine serum (30 min at 56° C.), 4.5 g/I glucose, 2 mM L-glutamine, 50 U/ml penicillin, 50 μg/ml streptomycin, 100 μg/ml Normocin™ (InvivoGen) together with pDNA:TLR7-TLR2 polyamine complexes at 37° C. overnight. pDNA:TLR7-TLR2 polyamine molecules complexes were prepared as described above prior to adding to the IFN reporter cells. The induced luciferase expression was assessed in the reporter cell lines using a coelenterazine-base luminescence assay reagent, the Quanti-Luc™ (InvivoGen). Secreted luciferase activity was determined by bioluminescence quantification of the cell culture media using a microplate luminometer (FLUOstar OPTIMA from BMG Labtech).

[2] = system: HEK293 cells; assay: Cell transfection with SEAP plasmid, HEK293; format: cell-based, human; conditions: in complex with pVitro14 LGFP SEAP plasmid, 48 hours, SEAP expression; FIG. 5A
Procedure: The TLR7-TLR2 molecules were tested for their ability as polyamine molecules to transport plasmid DNA (pDNA) into cells. The pVitro14 LGFP SEAP plasmid (InvivoGen) was complexed to TLR7-TLR2 polyamine molecules and to the control cationic lipid transfection agent, LyoVec™ (InvivoGen). The human HEK293 (ATCC, CRL-1573) and mouse B16-F1 melanoma (ATCC, CRL-6323) cell lines were seeded at a density of 50 000 cells/well and 20 000 cells/well respectively, in the absence or presence of different volumes of the plasmid encoding for the SEAP protein in complex with TLR7-TLR2 polyamine molecules for 48 hours at 37° C. and 10% CO2. Transfection efficiency was assessed by measuring SEAP reporter gene expression: 20 μl of supernatant was sampled and mixed with 180 μl of QUANTI-Blue™ Detection (InvivoGen). In the presence of alkaline phosphatase SEAP, the color of QUANTI-Blue™ changes from pink to purple/blue. The intensity of the blue hue reflects the activity of SEAP. The levels of SEAP secretion were determined quantitatively by reading the OD at 620-655 nm using a spectrophotometer, iMark™ Microplate Reader (BIO-RAD).

[3] = system: ISG54 promoter activity in RAW-ISG54 reporter cells; assay: IFN response assay, RAW-ISG54 luciferase reporter cells; format: cell-based, mouse; conditions: in complexes with pDNA 3:24 (w:w), overnight, FIG. 6A
Procedure: as §1, §2

[4] = system: endogenous TLR2 and TLR7 in RAW-Blue™ Cells; assay: RAW-Blue Cells NF-κB/AP-1 SEAP reporter assay; format: cell-based, mouse; conditions: 24 hours, OD at 655 nm, FIG. 4
Procedure, shortened: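 HEK293 cells stably expressing the given TLR, or RAW 264.7-derived cells (50,000 or 100,000 cells/well respectively), carry an NF-κB/AP-1-inducible SEAP reporter. Conjugated TLR7-TLR2 agonists at final 10 μg/mL to 10 pg/ml, 24 h at 37° C. SEAP read colorimetrically as OD at 655 nm in detection medium.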

[5] = Nanoparticle (lipoplex) size by dynamic light scattering; conditions: 25° C., triplicate; for Mean Diameter: complexes with pDNA 3:24 (w:w), dynamic light scattering; for PDI: polydispersity index of complexes with pDNA 3:24 (w:w);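 for all read-outs here: lipoplexes of TLR7-TLR2 polyamine conjugates with plasmid DNA, formed over 30 min at room temperature in serum-free medium or 5% glucose, diameter in nm, PDI dimensionless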

| Molecule | Mean Diameter [5] | PDI [5] | ability to induce an IFN response in B16-ISG54 reporter cells [1] | ability to transfect HEK293 cells [2] | ability to induce an IFN response in RAW-ISG54 reporter cells [3] | ability to activate endogenous TLR2 and TLR7 in RAW-Blue Cells [4] |
| --- | --- | --- | --- | --- | --- | --- |
| (6S,9S,12S,15S,18S,21R)-6,25-diamino-21-(4-((6-amino-2-(butylamino)-8-hydroxy-9H-purin-9-yl)methyl)phenylcarbamoyl)-12,15,18-tris(4-aminobutyl)-9-(hydroxyl methyl)-7,10,13,16,19-pentaoxo-4-thia-8,11,14,17,20-pentaazapentacosane-1,2-diyl dipalmitate [CL413] |  |  | induce an IFN response in B16-ISG54 reporter cells | lack the ability to transfect cells | induce an IFN response in RAW-ISG54 reporter cells | activate endogenous TLR2 and TLR7 |
| CCCCCCCCCCCCCCCC(=O)N[C@@H](CSCC(COC(=O)CCCCCCCCCCCCCCC)OC(=O)CCCCCCCCCCCCCCC)C(=O)N[C@@H](CO)C(=O)N[C@@H](CCCCN)C(=O)N[C@@H](CCCCN)C(=O)N[C@@H](CCCCN)C(=O)N[C@@H](CCCCN)C(=O)Nc1ccc(Cn2c(O)nc3c(N)nc(NCCCC)nc32)cc1 (stereo partly drawn) [CL534, ((6R,9S,12S,15S,18S,21S)-25-amino-21-(4-((6-amino-2-(butylamino)-8-hydroxy-9H-purin-9-yl)methyl)phenylcarbamoyl)-12,15,18-tris(4-aminobutyl)-9-(hydroxylmethyl)-7,10,13,16,19-pentaoxo-6-palmitamido-4-thia-8,11,14,17,20-pentaazapentacosane-1,2-diyl dipalmitate] |  |  |  | lack the ability to transfect cells |  | activate endogenous TLR2 and TLR7 |

Further lines, with some results ahead:

| Mean Diameter [5] | PDI [5] | Molecule | ability to induce an IFN response in B16-ISG54 reporter cells [1] | ability to transfect HEK293 cells [2] | ability to induce an IFN response in RAW-ISG54 reporter cells [3] | ability to activate endogenous TLR2 and TLR7 in RAW-Blue Cells [4] |
| --- | --- | --- | --- | --- | --- | --- |
| 175.1 nm and 156.9 nm and 168.3 nm | 0.253 and 0.239 and 0.258 | CCCCCCCCCCCCCCCC(=O)OCC(CSC[C@H](N)C(=O)N[C@@H](CCC(=O)NCCCNCCCCNCCCN)C(=O)Nc1ccc(Cn2c(O)nc3c(N)nc(NCCCC)nc32)cc1)OC(=O)CCCCCCCCCCCCCCC (stereo partly drawn) [CL527, (6R,9S)-6,25-diamino-9-(4-((6-amino-2-(butylamino)-8-hydroxy-9H-purin-9-yl)methyl)phenylcarbamoyl)-7,12-dioxo-4-thia-8,13,17,22-tetraazapentacosane-1,2-diyl dipalmitate] | induce an IFN response in B16-ISG54 reporter cells | transfect HEK293 cells | induce an IFN response in RAW-ISG54 reporter cells | activate endogenous TLR2 and TLR7 |
| 170.0 nm and 190.0 nm and 180.2 nm | 0.226 and 0.230 and 0.237 | CCCCCCCCCCCCCCCC(=O)OCC(CSC[C@H](N)C(=O)NCCCNCCCCNCCCNC(=O)CNC(=O)c1ccc(Cn2c(O)nc3c(N)nc(NCCCC)nc32)cc1)OC(=O)CCCCCCCCCCCCCCC (stereo partly drawn) [CL553, (20R)-20-amino-1-(4-((6-amino-2-(butylamino)-8-hydroxy-9H-purin-9-yl)methyl)phenyl)-1,4,19-trioxo-22-thia-2,5,9,14,18-pentaazapentacosane-24,25-diyl dipalmitate] | induce an IFN response in B16-ISG54 reporter cells | transfect HEK293 cells | induce an IFN response in RAW-ISG54 reporter cells | activate endogenous TLR2 and TLR7 |
| 249.1 nm and 309.6 nm and 258.3 nm | 0.303 and 0.354 and 0.372 | CCCCCCCCCCCCCCCC(=O)OCC(CSC[C@H](N)C(=O)N[C@@H](COC(=O)c1ccc(Cn2c(O)nc3c(N)nc(NCCCC)nc32)cc1)C(=O)NCCCNCCCCNCCCN)OC(=O)CCCCCCCCCCCCCCC (stereo partly drawn) [CL514, (6R,9S)-6,23-diamino-9-((4-((6-amino-2-(butylamino)-8-hydroxy-9H-purin-9-yl)methyl)benzoyloxy)methyl)-7,10-dioxo-4-thia-8,11,15,20-tetraazatricosane-1,2-diyl dipalmitate] | induce an IFN response in B16-ISG54 reporter cells | transfect HEK293 cells | induce an IFN response in RAW-ISG54 reporter cells | activate endogenous TLR2 and TLR7 |
